These results are taken from US12077503B2, “Substituted cyclic amides and their use as herbicides” (FMC CORPORATION, priority 2015, dated 2024).

Like-named read-outs stand apart in the source and are kept apart here.

Test in all cases: Test A postemergence
Holding throughout (type): in vivo

Test [1] deals with Galium (catchweed bedstraw, Galium aparine). To be noted: Galium, post-emergence, 240 h; for pest or weed control at 125 g/ha: 125 g ai/ha; for pest or weed control at 500 g/ha: 500 g ai/ha. The procedure, abridged: (§1)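 Greenhouse, ~10 d after spray; visual injury vs untreated controls, 0 = no effect, 100 = complete control. Preemergence: directed soil spray over planted seeds. Postemergence: plants 2–10 cm, 1–2 leaf stage. Loam/sand blend. Compound in non-phytotoxic solvent with surfactant.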

In a further test the test system is Kochia (Kochia scoparia). As to conditions: Bassia scoparia, post-emergence, 240 h; for pest or weed control at 125 g/ha: 125 g ai/ha; for pest or weed control at 500 g/ha: 500 g ai/ha. Summed up: as §1
Test [2] relates to blackgrass (Alopecurus myosuroides). As to conditions: Alopecurus myosuroides, post-emergence, 240 h; for pest or weed control at 125 g/ha: 125 g ai/ha; for pest or weed control at 500 g/ha: 500 g ai/ha. Summed up: as §1
Another test has as its system corn (Zea mays). As to conditions: Zea mays, post-emergence, 240 h; for Corn plant response rating (crop injury, 0 = no effect, 100 = complete kill) at 125 g/ha / plant injury at 125 g/ha: 125 g ai/ha; for Corn plant response rating (crop injury, 0 = no effect, 100 = complete kill) at 125 g/ha: visual injury after approximately 10 d; for Corn plant response rating (crop injury, 0 = no effect, 100 = complete kill) at 125 g/ha / Corn plant response rating (crop injury, 0 = no effect, 100 = complete kill) at 500 g/ha: 0 to 100 scale (0 no effect, 100 complete control); for plant injury at 125 g/ha: read-out: Corn plant response rating (0 to 100 scale); for Corn plant response rating (crop injury, 0 = no effect, 100 = complete kill) at 500 g/ha: visual injury, approx. 10 d. The procedure, abridged:
as §1

For test [3], the system named is ragweed (common ragweed, Ambrosia elatior). As to conditions: Ambrosia artemisiifolia, post-emergence, 240 h; for pest or weed control at 125 g/ha: 125 g ai/ha; for pest or weed control at 500 g/ha: 500 g ai/ha. The procedure, abridged: as §1
In test [4] the test system is wheat (Triticum aestivum). To be noted: Triticum aestivum, post-emergence, 240 h; for plant injury at 125 g/ha: 125 g ai/ha; for plant injury at 500 g/ha: 500 g ai/ha. The procedure, abridged:
as §1

Where [5] appears, read: postemergence, visual injury after approximately 10 d, 0 to 100 scale (0 no effect, 100 complete control), read-out: Plant response rating, Galium.
Setting [6] is: postemergence, visual injury after approximately 10 d, 0 to 100 scale (0 no effect, 100 complete control), read-out: Plant response rating, Kochia.
Where [7] appears, read: postemergence, visual injury after approximately 10 d, 0 to 100 scale (0 no effect, 100 complete control), read-out: Plant response rating, Blackgrass.
Setting [8] is: postemergence, visual injury after approximately 10 d, 0 to 100 scale (0 no effect, 100 complete control), read-out: Plant response rating, Ragweed.
The mark [9] stands for this setting: Postemergence, visual injury, 0 to 100 scale (0 no effect, 100 complete control), approx. 10 d, read-out: Plant response rating, Galium.
[10] abbreviates: Postemergence, visual injury, 0 to 100 scale (0 no effect, 100 complete control), approx. 10 d, read-out: Plant response rating, Kochia.
[11] abbreviates: Postemergence, visual injury, 0 to 100 scale (0 no effect, 100 complete control), approx. 10 d, read-out: Plant response rating, Blackgrass.
[12] abbreviates: Postemergence, visual injury, 0 to 100 scale (0 no effect, 100 complete control), approx. 10 d, read-out: Plant response rating, Ragweed.
Setting [13] is: Postemergence, visual injury, 0 to 100 scale (0 no effect, 100 complete control), approx. 10 d, read-out: Plant response rating, Wheat.
Setting [14] is: postemergence, visual injury vs untreated controls after approx. 10 d, 0 = no effect, 100 = complete control, read-out: Galium plant response rating (0 to 100 scale).
Where [15] appears, read: postemergence, visual injury vs untreated controls after approx. 10 d, 0 = no effect, 100 = complete control, read-out: Kochia plant response rating (0 to 100 scale).
[16] abbreviates: postemergence, visual injury vs untreated controls after approx. 10 d, 0 = no effect, 100 = complete control, read-out: Blackgrass plant response rating (0 to 100 scale).
Setting [17] is: postemergence, visual injury vs untreated controls after approx. 10 d, 0 = no effect, 100 = complete control.
Where [18] appears, read: postemergence, visual injury vs untreated controls after approx. 10 d, 0 = no effect, 100 = complete control, read-out: Ragweed plant response rating (0 to 100 scale).
The mark [19] stands for this setting: postemergence, visual injury vs untreated controls after approx. 10 d, 0 = no effect, 100 = complete control, read-out: Wheat plant response rating (0 to 100 scale).
Setting [20] is: postemergence, visual injury after approximately 10 d, 0 to 100 scale (0 no effect, 100 complete control), read-out: Plant response rating, Wheat.

On to `CN1CC[C@@H](c2cccc(C(F)(F)F)c2)[C@H](C(=O)Nc2ccccc2F)C1=O` [Compound 794], for which the pest or weed control at 125 g/ha (in test [1] (setting [5]); in the test on Kochia (Kochia scoparia) (setting [6]); in test [2] (setting [7]); in test [3] (setting [8])) was 0% each time. In addition, the pest or weed control at 31 g/ha in test [1] (Postemergence, 31 g ai/ha, visual injury after approx. 10 d, 0 to 100 scale, 0 no effect, 100 complete control, read-out: Plant response rating, Galium) amounted to 0%; in the test on Kochia (Kochia scoparia) (Postemergence, 31 g ai/ha, visual injury after approx. 10 d, 0 to 100 scale, 0 no effect, 100 complete control, read-out: Plant response rating, Kochia), 0%; in test [2] (Postemergence, 31 g ai/ha, visual injury after approx. 10 d, 0 to 100 scale, 0 no effect, 100 complete control, read-out: Plant response rating, Blackgrass), 0%; in test [3] (Postemergence, 31 g ai/ha, visual injury after approx. 10 d, 0 to 100 scale, 0 no effect, 100 complete control, read-out: Plant response rating, Ragweed), 0%. In the test on corn (Zea mays) (postemergence), this molecule yielded a Corn plant response rating (crop injury, 0 = no effect, 100 = complete kill) at 125 g/ha of 0%. In the test on corn (Zea mays) (Postemergence, 31 g ai/ha, visual injury after approx. 10 d, 0 to 100 scale, 0 no effect, 100 complete control), this molecule came in with a Corn plant response rating (crop injury, 0 = no effect, 100 = complete kill) at 31 g/ha of 0%. Further, in test [4] (Postemergence, 31 g ai/ha, visual injury after approx. 10 d, 0 to 100 scale, 0 no effect, 100 complete control, read-out: Plant response rating, Wheat), the plant injury at 31 g/ha stood at 0%.
With `CN1C[C@H](c2ccc3c(c2)CCO3)[C@@H](C(=O)Nc2ccc(F)c(F)c2F)C1=O` [Compound 1323], the pest or weed control at 125 g/ha was 50% in test [1] (Postemergence, visual rating about 10 d after treatment, read-out: Galium plant response rating (0 to 100 scale)); 0% in the test on Kochia (Kochia scoparia) (Postemergence, visual rating about 10 d after treatment, read-out: Kochia plant response rating (0 to 100 scale)); 50% in test [2] (Postemergence, visual rating about 10 d after treatment, read-out: Blackgrass plant response rating (0 to 100 scale)); 0% in test [3] (Postemergence, visual rating about 10 d after treatment, read-out: Ragweed plant response rating (0 to 100 scale)). For the same molecule, the pest or weed control at 500 g/ha in test [1] (setting [9]) worked out at 60%; in the test on Kochia (Kochia scoparia) (setting [10]), 70%; in test [2] (setting [11]) it was 60%; in test [3] (setting [12]) it was 50%. Further, the plant injury at 125 g/ha in the test on corn (Zea mays) (Postemergence, visual rating about 10 d after treatment) is 50%; in test [4] (Postemergence, visual rating about 10 d after treatment, read-out: Wheat plant response rating (0 to 100 scale)), 50%. Besides, the Corn plant response rating (crop injury, 0 = no effect, 100 = complete kill) at 500 g/ha in the test with corn (Zea mays) (Postemergence, 500 g ai/ha) worked out at 70%. In addition, in test [4] (setting [13]), the plant injury at 500 g/ha was 70%.
`CSc1ccccc1NC(=O)[C@H]1C(=O)N(C)C[C@@H]1c1cccc(C(F)(F)F)c1` [Compound 1249]: the pest or weed control at 125 g/ha in test [1] (setting [14]) is 50%; in the test on Kochia (Kochia scoparia) (setting [15]) it was 40%; in test [2] (setting [16]) it was 40%; in test [3] (setting [18]) it was 0%. For the same molecule, the pest or weed control at 500 g/ha in test [1] (setting [9]) was 50%; in the test with Kochia (Kochia scoparia) (setting [10]) it was 70%; in test [2] (setting [11]) it was 50%; in test [3] (setting [12]), 60%. For the same molecule, the plant injury at 125 g/ha with corn (Zea mays) (setting [17]) was determined as 70%; in test [4] (setting [19]) it was 50%. This molecule gave a Corn plant response rating (crop injury, 0 = no effect, 100 = complete kill) at 500 g/ha in the test on corn (Zea mays) (Postemergence, 500 g ai/ha) of 90%. In addition, the plant injury at 500 g/ha in test [4] (setting [13]) was 70%.
On to `Cc1c(F)cccc1NC(=O)[C@H]1C(=O)N(C)C[C@@H]1c1ccc(F)c(Br)c1` [Compound 1211], for which the pest or weed control at 125 g/ha was 50% in test [1] (setting [14]), 0% with Kochia (Kochia scoparia) (setting [15]), 30% in test [2] (setting [16]) and 0% in test [3] (setting [18]). Further, the pest or weed control at 500 g/ha in test [1] (postemergence, 0 to 100 scale, 0 is no effect, 100 is complete control, read-out: Galium plant response rating) was 60%; in the test on Kochia (Kochia scoparia) (postemergence, 0 to 100 scale, 0 is no effect, 100 is complete control, read-out: Kochia plant response rating), 30%; in test [2] (postemergence, 0 to 100 scale, 0 is no effect, 100 is complete control, read-out: Blackgrass plant response rating) it was 40%; in test [3] (postemergence, 0 to 100 scale, 0 is no effect, 100 is complete control, read-out: Ragweed plant response rating), 0%. Moreover, the results for the plant injury at 125 g/ha (in the test on corn (Zea mays) (setting [17]); in test [4] (setting [19])) were 80% and 30%, respectively. The plant injury at 500 g/ha in the test on corn (Zea mays) (500 g ai/ha, postemergence, 0 to 100 scale, 0 is no effect, 100 is complete control, read-out: Corn plant response rating) came out at 90%; in test [4] (postemergence, 0 to 100 scale, 0 is no effect, 100 is complete control, read-out: Wheat plant response rating), 60%.
In the case of `Cc1ccc([C@H]2CNC(=O)[C@@H]2C(=O)Nc2cccc(F)c2F)c(F)c1` [Compound 720], the pest or weed control at 125 g/ha was 50% in test [1] (setting [5]), 50% in the test with Kochia (Kochia scoparia) (setting [6]), 20% in test [2] (setting [7]) and 0% in test [3] (setting [8]). The molecule further showed a Corn plant response rating (crop injury, 0 = no effect, 100 = complete kill) at 125 g/ha in the test with corn (Zea mays) (postemergence) of 0%. For the same molecule, the plant injury at 125 g/ha in test [4] (setting [20]) turned out to be 0%.
On to `Cc1cc([C@H]2CNC(=O)[C@@H]2C(=O)Nc2ccc(F)cc2F)ccc1Br` [Compound 725], for which the pest or weed control at 125 g/ha in test [1] (setting [5]) was determined as 20%; in the test on Kochia (Kochia scoparia) (setting [6]), 0%; in test [2] (setting [7]), 0%; in test [3] (setting [8]), 0%. Also, the Corn plant response rating (crop injury, 0 = no effect, 100 = complete kill) at 125 g/ha in the test on corn (Zea mays) (postemergence) worked out at 0%. The plant injury at 125 g/ha in test [4] (setting [20]) was found to be 0%.
On to `Cc1cc([C@H]2CN(C)C(=O)[C@@H]2C(=O)Nc2ccc(F)c(F)c2F)ccc1F` [Compound 719], for which the pest or weed control at 125 g/ha stood at 60% in test [1] (setting [5]), 60% in the test with Kochia (Kochia scoparia) (setting [6]), 60% in test [2] (setting [7]) and 30% in test [3] (setting [8]). Besides, the Corn plant response rating (crop injury, 0 = no effect, 100 = complete kill) at 125 g/ha in the test with corn (Zea mays) (postemergence) stood at 90%. In test [4] (setting [20]), the plant injury at 125 g/ha was 80%.
